Assay results taken from the CheMixHub viscosity set.
Values joined by “and” are separate entries in the source; they are usually repeats but may differ in a detail not shown here. Equal values may be shown once.

CCC#N
viscosity [mPa·s]
Details	298.15 K	303.15 K	308.15 K	313.15 K	318.15 K	323.15 K
101 kPa	0.42	0.41	0.39	0.37	0.36	0.31
101.33 kPa	–	0.3886	–	–	–	–

CCCCCC(=O)[O-].[NH3+]CCO
101 kPa
Details	viscosity [mPa·s]
293.15 K	2571
298.15 K	1765
303.15 K	1239
308.15 K	892.2
313.15 K	645.8
318.15 K	477.6
323.15 K	358.5

CCCCCCC(=O)[O-].CC[NH+](C(C)C)C(C)C
Details	viscosity [mPa·s]
298.15 K, 101.3 kPa	12.23

CCCCCCCCCCCC
Details	viscosity
298.15 K, 101 kPa	1.34 mPa·s and 1.338 mPa·s and 1.336 mPa·s
298.15 K, 101.33 kPa	1.324 mPa·s
298.15 K, 103 kPa	1.291 mPa·s
303.15 K, 101.33 kPa	1.215 mPa·s and 1.209 mPa·s
307.52 K, 101.3 kPa	1.159 mPa·s
307.57 K, 101.3 kPa	1.159 mPa·s
308.15 K, 100 kPa	1.115 mPa·s and 1.157 mPa·s
308.15 K, 101 kPa	1.112 mPa·s and 1.125 mPa·s
308.15 K, 103 kPa	1.086 mPa·s
313.15 K, 101 kPa	1.039 mPa·s
313.15 K, 101.33 kPa	1.025 mPa·s
318.15 K, 100 kPa	0.986 mPa·s
318.15 K, 101 kPa	0.935 mPa·s and 0.965 mPa·s
318.15 K, 101.33 kPa	0.935 mPa·s
318.15 K, 103 kPa	0.936 mPa·s
323.15 K, 100 kPa	0.9146 mPa·s and 0.921 mPa·s
323.15 K, 101 kPa	0.898 mPa·s
323.15 K, 102 kPa	0.917 mPa·s (2×) and 0.919 mPa·s

CCOC(=O)OCC
Details	viscosity
293.15 K, 101 kPa	0.8024 mPa·s
298.15 K, 101 kPa	0.74 mPa·s and 0.7539 mPa·s
303.15 K, 100 kPa	0.698 mPa·s
303.15 K, 101 kPa	0.701 mPa·s
308.15 K, 100 kPa	0.65 mPa·s
308.15 K, 101 kPa	0.656 mPa·s
313.15 K, 100 kPa	0.622 mPa·s
313.15 K, 101 kPa	0.621 mPa·s
318.15 K, 100 kPa	0.58 mPa·s
318.15 K, 101.3 kPa	0.578 mPa·s
318.15 K, 101.33 kPa	0.578 mPa·s
323.15 K, 100 kPa	0.54 mPa·s
323.15 K, 101 kPa	0.543 mPa·s

COC=O
Details	viscosity [mPa·s]
298.15 K, 101.33 kPa	0.328

COCCOCCO
viscosity
Details	293.15 K	298.15 K	303.15 K	308.15 K	313.15 K	318.15 K	323.15 K
101 kPa	3.906 mPa·s	3.442 mPa·s and 3.574 mPa·s	3.152 mPa·s	2.593 mPa·s	–	2.159 mPa·s	–
101.3 kPa	3.943 mPa·s	–	3.016 mPa·s	–	2.348 mPa·s	–	1.902 mPa·s
101.33 kPa	–	3.565 mPa·s and 3.565 mPa·s	–	2.627 mPa·s and 2.865 mPa·s	–	–	–

Cc1ccc(Cl)cc1
viscosity
Details	298.15 K	303.15 K	308.15 K	313.15 K	318.15 K
100 kPa	0.83 mPa·s	0.782 mPa·s	0.724 mPa·s and 0.737 mPa·s	0.682 mPa·s	0.632 mPa·s and 0.662 mPa·s
101 kPa	–	0.782 mPa·s and 0.782 mPa·s	0.728 mPa·s	0.684 mPa·s and 0.682 mPa·s	0.632 mPa·s

Cc1ccc(N)cc1
101 kPa
Details	viscosity [mPa·s]
313.05 K	2.08
323.1 K	1.8

Cc1ccccc1C
Details	viscosity
293.15 K, 101 kPa	0.7604 mPa·s
293.15 K, 101.33 kPa	0.812 mPa·s
298.15 K, 100 kPa	0.7464 mPa·s
298.15 K, 101 kPa	0.765 mPa·s and 0.761 mPa·s
298.15 K, 101.3 kPa	0.78 mPa·s
298.15 K, 101.33 kPa	0.7587 mPa·s
303.15 K, 101 kPa	0.6725 mPa·s and 0.68 mPa·s and 0.7095 mPa·s
303.15 K, 101.3 kPa	0.7272 mPa·s and 0.7062 mPa·s
303.15 K, 101.32 kPa	0.702 mPa·s
303.15 K, 101.33 kPa	0.757 mPa·s and 0.711 mPa·s
308.15 K, 100 kPa	0.6199 mPa·s
308.15 K, 101 kPa	0.676 mPa·s and 0.656 mPa·s
308.15 K, 101.33 kPa	0.5381 mPa·s and 0.725 mPa·s and 0.659 mPa·s
313.15 K, 101.32 kPa	0.627 mPa·s
313.15 K, 101.33 kPa	0.702 mPa·s
318.15 K, 101.33 kPa	0.682 mPa·s
323.15 K, 101.3 kPa	0.5554 mPa·s

Cl[Si](Cl)(Cl)Cl
101 kPa
Details	viscosity
303.1 K	0.462 mPa·s and 0.442 mPa·s
313.1 K	0.402 mPa·s

c1ccc(Oc2ccccc2)cc1
101 kPa
Details	viscosity
303.15 K	3.3 mPa·s and 3.051 mPa·s
308.15 K	2.92 mPa·s
313.15 K	2.61 mPa·s
